Laboratory results: US20260055083A1, “APOL1 INHIBITORS AND METHODS OF USE” (Maze Therapeutics, Inc., priority 2022, published 2026)

Assays:
APOL1 G2 [1] = target: T1, APOL1 G2 (Homo sapiens, UniProt O14791, DEL388-389); test: APOL1 G2 HEK293 rescue of cell death caused by overexpression of APOL1 (CellTiter-Glo); format: cell-based; details: HEK293/T-REx APOL1 G2 clone #2, doxycycline induction, 17 hours, CellTiter-Glo luminescence; reversal of cell death; geometric mean of at least 2 assay runs
T1 construct: expressed in transfected cells; host or cells: HEK293/T-REx APOL1 G2 clone #2, doxycycline-inducible
T1 sequence (O14791 with tags, fused parts or gaps DEL388-389): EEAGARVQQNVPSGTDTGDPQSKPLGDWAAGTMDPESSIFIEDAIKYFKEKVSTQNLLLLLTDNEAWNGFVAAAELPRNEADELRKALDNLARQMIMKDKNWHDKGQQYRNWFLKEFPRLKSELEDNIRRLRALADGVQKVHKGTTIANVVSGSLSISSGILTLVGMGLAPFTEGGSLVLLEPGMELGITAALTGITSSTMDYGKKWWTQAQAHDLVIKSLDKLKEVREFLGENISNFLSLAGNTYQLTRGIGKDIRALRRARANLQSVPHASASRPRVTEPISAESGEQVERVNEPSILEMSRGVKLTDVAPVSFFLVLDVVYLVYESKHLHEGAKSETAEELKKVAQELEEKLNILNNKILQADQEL
In short: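 Viability read by CellTiter-Glo luminescence after 17 h, 37 °C, in HEK293/T-REx cells expressing APOL1 G2 on 6 ng/mL doxycycline, 5,000 cells/well. Compounds tested as duplicate 8-point, 3-fold dilutions, 0.5% DMSO final; four-parameter logistic EC50, usually geometric mean of ≥2 days.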

APOL1 G2 [2] = target: T1, APOL1 G2; test: APOL1 G2 FLIPR calcium influx assay (HEK T-REx/GCaMP6f/APOL1 G2 K6.3 cells); format: cell-based; details: HEK293 clone expressing GCaMP6f, doxycycline-induced APOL1 G2; prevention of calcium influx; geometric mean of at least 2 assay runs
In short: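 Cells express GCaMP6f stably and APOL1 G2 after a 6 h doxycycline induction. Duplicate 8-point dilutions sit 10 min at room temperature in Ca2+-free Tyrode's (pH 7.4), then Ca2+ is injected to 5 mM final and the FLIPR signal recorded. AC50s are geometric means across ≥2 days.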

SMILES: C[C@@H]1CN(CC(CO)c2cc(Cl)cc(C#N)c2)C[C@H]1COc1ccc(S(C)(=O)=O)cc1 (single isomer, unassigned) [Compound 128, 3-chloro-5-[(2S or 2R)-1-hydroxy-3-[(3S,4S)-3-[(4-methanesulfonylphenoxy)methyl]-4-methylpyrrolidin-1-yl]propan-2-yl]benzonitrile]
- EC50 (APOL1 G2 [1]): 711 nM
- AC50 (APOL1 G2 [2]): 1510 nM

SMILES: C[C@@H]1CN(CCc2cc(Cl)cc(C#N)c2)C[C@H]1COc1ccc(S(=O)(=O)C2(C)COC2)cc1 [Compound 13, 3-chloro-5-{2-[(3S,4S)-3-methyl-4-({4-[(3-methyloxetan-3-yl)sulfonyl]phenoxy}methyl)pyrrolidin-1-yl]ethyl}benzonitrile]
- EC50 (APOL1 G2 [1]): 41.4 nM
- AC50 (APOL1 G2 [2]): 290 nM

SMILES: CC(c1ccc(OC[C@@H]2CN(CCc3cccc(Cl)c3)CCN2)cc1)S(C)(=O)=O (single isomer, unassigned) [Compound 142, (3S)-1-[2-(3-chlorophenyl)ethyl]-3-({4-[(1S) or (1R)-1-methanesulfonylethyl]phenoxy}methyl)piperazine]
- EC50 (APOL1 G2 [1]): 231 nM
- AC50 (APOL1 G2 [2]): 703 nM

SMILES: C[C@@H]1C[C@H](COc2ccc(S(=O)(=O)CCCS(C)(=O)=O)cc2)CN1C1CCc2c(C#N)cccc2C1 (single isomer, unassigned) [Compound 42, (6R or 6S)-6-[(2R,4S)-4-{[4-(3-methanesulfonylpropanesulfonyl)phenoxy]methyl}-2-methylpyrrolidin-1-yl]-5,6,7,8-tetrahydronaphthalene-1-carbonitrile]
- EC50 (APOL1 G2 [1]): 227 nM
- AC50 (APOL1 G2 [2]): 1030 nM

SMILES: C[C@@H]1CN(CC(O)c2cccc(Cl)c2)C[C@H]1COc1ccc(S(C)(=O)=O)cc1 (single isomer, unassigned) [Compound 144, (1S) or (1R)-1-(3-chlorophenyl)-2-[trans-3-[(4-methanesulfonylphenoxy)methyl]-4-methylpyrrolidin-1-yl]ethan-1-ol]
- EC50 (APOL1 G2 [1]): 289 nM
- AC50 (APOL1 G2 [2]): 265 nM

SMILES: C[C@@H]1CN(CC(O)c2cccc(C#N)c2)C[C@H]1COc1ccc(S(C)(=O)=O)nc1 (stereo partly drawn) [Compound 104, 3-{1-hydroxy-2-[(3S,4S)-3-{[(6-methanesulfonylpyridin-3-yl)oxy]methyl}-4-methylpyrrolidin-1-yl]ethyl}benzonitrile]
- EC50 (APOL1 G2 [1]): 1010 nM
- AC50 (APOL1 G2 [2]): 700 nM

SMILES: C[C@@H]1C[C@H](COc2ccc(S(=O)(=O)CCO)cc2)CN1C1CCc2ccc(C#N)cc2C1 (single isomer, unassigned) [Compound 59, (7R or 7S)-7-[(2R,4S)-4-{[4-(2-hydroxyethanesulfonyl)phenoxy]methyl}-2-methylpyrrolidin-1-yl]-5,6,7,8-tetrahydronaphthalene-2-carbonitrile]
- EC50 (APOL1 G2 [1]): 380 nM
- AC50 (APOL1 G2 [2]): 794 nM

SMILES: C[C@@H]1C[C@H](COc2ccc(S(C)(=O)=O)cc2)CN1C1Cc2ccc(Cl)cc2C1 (single isomer, unassigned) [Compound 2]
- EC50 (APOL1 G2 [1]): 693 nM
- AC50 (APOL1 G2 [2]): 1030 nM

SMILES: CC(=O)N(C)CCS(=O)(=O)c1ccc(OC[C@H]2C[C@@H](C)N(CCc3cc(Cl)cc(C#N)c3)C2)cc1 [Compound 66, N-[2-(4-{[(3S,5R)-1-[2-(3-chloro-5-cyanophenyl)ethyl]-5-methylpyrrolidin-3-yl]methoxy}benzenesulfonyl)ethyl]-N-methylacetamide]
- EC50 (APOL1 G2 [1]): 76.8 nM
- AC50 (APOL1 G2 [2]): 621 nM

SMILES: C[C@@H]1C[C@H](COc2ccc(S(C)(=O)=O)cn2)CN1CCc1cc(Cl)cc(C#N)c1 [Compound 12, 3-chloro-5-{2-[(2R,4S)-4-{[(5-methanesulfonylpyridin-2-yl)oxy]methyl}-2-methylpyrrolidin-1-yl]ethyl}benzonitrile]
- EC50 (APOL1 G2 [1]): 99.2 nM
- AC50 (APOL1 G2 [2]): 279 nM

SMILES: C[C@@H]1C[C@H](COc2ccc(S(=O)(=O)CCS(C)(=O)=O)cc2)CN1C1CCc2ccc(Cl)cc2C1 (single isomer, unassigned) [Compound 51, (2R,4S)-1-[(2R or 2S)-7-chloro-1,2,3,4-tetrahydronaphthalen-2-yl]-4-{[4-(2-methanesulfonylethanesulfonyl)phenoxy]methyl}-2-methylpyrrolidine]
- EC50 (APOL1 G2 [1]): 128 nM
- AC50 (APOL1 G2 [2]): 439 nM
